Assay results: EP0076430A1, “Compositions having antimicrobial activity” (MEDEA RESEARCH S.r.l., priority 1981, dated 1983)

Columns and labels:
Indole-positive Proteus [1] = test: Bactericide activity at different contact times; assay type: cell-based; set-up: key to Bactericide action (growth / no growth): + = growth; - = no growth; conditions: 100 p.p.m.
Experimental: (§1) Different bacterial species isolated from patients are employed.
(§2) Compounds AB5 and AB6 are dissolved in ethanol (ethyl alcohol 95°, C. Erba) and all the subsequent dilutions performed in distilled water. The chlorhexidine is diluted from the commercial product already dissolved in distilled water.
(§3) It is assessed through Dinatech apparatus with "Inoculum 96" head.
(§4) Chemical compounds at established concentra tions are placed in amount of 1 ml in the con tainers, the bacterial inoculum is then added in amount of 0.1 ml (24 hrs culture) and at pre-established times (3,5,10,30,60 and 120 mi nutes), through the head, the mixture compound/ disinfectant agent is transferred in solid medium (agar-heart-brain medium). After incubation at 35°C for 24 hours, the reading is carried out. The tests are repeated in presence of human serum at the concentration of 10%.

E. coli = test: Bactericide activity at different contact times; assay type: cell-based; set-up: key to Bactericide action (growth / no growth): + = growth; - = no growth; conditions: 100 p.p.m.
Experimental: as §1, §2, §3, §4

Serratia marcescens [2] = test: Bactericide activity at different contact times; assay type: cell-based; set-up: key to Bactericide action (growth / no growth): + = growth; - = no growth; conditions: 100 p.p.m.
Experimental: as §1, §2, §3, §4

Pseudomonas aeruginosa [3] = test: Bactericide activity at different contact times; assay type: cell-based; set-up: key to Bactericide action (growth / no growth) / Bactericide activity (growth / no growth), serum interference test: + = growth; - = no growth
Experimental: as §1, §2, §3, §4

B. subtilis = test: Bactericide activity at different contact times; assay type: cell-based; set-up: key: + = growth; - = no growth; conditions: 100 p.p.m.
Experimental: as §1, §2, §3, §4

Salmonella sp. [4] = test: Bactericide activity at different contact times; assay type: cell-based; set-up: key: + = growth; - = no growth; conditions: 100 p.p.m.
Experimental: as §1, §2, §3, §4

Staph. aureus [5] = test: Bactericide activity at different contact times; assay type: cell-based; set-up: key: + = growth; - = no growth; conditions: 100 p.p.m.
Experimental: as §1, §2, §3, §4

Bacillaceae = test: Minimum inhibitory concentration (MIC), broth dilution; assay type: cell-based; conditions: 24 h; strain 1722
Experimental: as §1, §2
(§5) The broth dilution is employed to assess MIC values for all strains. Sterile microtiter plates with U bottom with 96 wells are employed. 0.1 Ml of liquid medium (tryptose Roche broth) are put in each well, the plates are kept at -20° and, before use, at room temperature.
(§6) The disinfectant agent is put in the wells of the row 2 at a concentration of 4000 mcg/ml (real 2000 mcg/ml) and then with a 100 µl micro- pipette dilutions are performed from row 2 to row 11.
(§7) The row 1 is the control of the medium and the row 12 is the control for the fertility of the medium itself.
(§8) After having performed the dilutions, 0.01 ml of a 24 hrs bacterial broth culture (previously diluted at 10^-4 for Gram-negative strains and 10-2 for Gram-positive ones) are placed in all wells, from the rows 2 to 12. After the inoculation, the plate is hermetical ly sealed with adhesive transparent band and an hole is done with a needle. The plates are kept at 35° for 24 hours and a macroscopic reading is carried out; in case of non uniform reading, taking place only for chlorhexidine, the cultures from the wells are plated on agar-heart-brain medium (Sclavo) through Dinatech apparatus (head "Inoculum 96") and the reading of the growth is carried out in the following 24 hours.

Enterobacter = test: as above; assay type: cell-based; conditions: 24 h, strain 2643
Experimental: as §1, §2, §5, §6, §7, §8

Indole-positive Proteus [6] = test: as above; assay type: cell-based; conditions: 24 h
Experimental: as §1, §2, §5, §6, §7, §8

Pseudomonas aeruginosa [7] = test: as above; assay type: cell-based; conditions: 24 h
Experimental: as §1, §2, §5, §6, §7, §8

Serratia marcescens [8] = test: as above; assay type: cell-based; conditions: 24 h, strain 1814
Experimental: as §1, §2, §5, §6, §7, §8

Salmonella sp. [9] = test: as above; assay type: cell-based; conditions: 24 h, strain 2482
Experimental: as §1, §2, §5, §6, §7, §8

E.coli = test: as above; assay type: cell-based; conditions: Escherichia coli, 24 h
Experimental: as §1, §2, §5, §6, §7, §8

Staph. aureus [10] = test: as above; assay type: cell-based; conditions: Staphylococcus aureus, 24 h; strain 2672
Experimental: as §1, §2, §5, §6, §7, §8

[11] = Toxicity, LD50 by intraperitoneal route; conditions: mouse, in vivo, ip, mice

NC(=NI)c1ccccc1 [AB6]
30 min: longest time in which it is active (Serratia marcescens [2])
-: Bactericide action (growth / no growth) (Indole-positive Proteus [1]; contact time 3 min) | Bactericide action (growth / no growth) (Indole-positive Proteus [1]; contact time 5 min) | Bactericide action (growth / no growth) (Indole-positive Proteus [1]; contact time 10 min) | Bactericide action (growth / no growth) (Indole-positive Proteus [1]; contact time 30 min) | Bactericide action (growth / no growth) (Indole-positive Proteus [1]; contact time 60 min) | Bactericide action (growth / no growth) (Indole-positive Proteus [1]; contact time 120 min) | Bactericide action (growth / no growth) (E. coli; contact time 10 min) | Bactericide action (growth / no growth) (E. coli; contact time 30 min) | Bactericide action (growth / no growth) (E. coli; contact time 60 min) | Bactericide action (growth / no growth) (E. coli; contact time 120 min) | Bactericide action (growth / no growth) (Serratia marcescens [2]; contact time 30 min) | Bactericide action (growth / no growth) (Serratia marcescens [2]; contact time 60 min) | Bactericide action (growth / no growth) (Serratia marcescens [2]; contact time 120 min) | Bactericide action (growth / no growth) (Pseudomonas aeruginosa [3]; contact time 3 min, 100 p.p.m.) | Bactericide activity (growth / no growth), serum interference test (Pseudomonas aeruginosa [3]; contact time 3 min, without serum) | Bactericide action (growth / no growth) (Pseudomonas aeruginosa [3]; contact time 5 min, 100 p.p.m.) | Bactericide activity (growth / no growth), serum interference test (Pseudomonas aeruginosa [3]; contact time 5 min, without serum) | Bactericide action (growth / no growth) (Pseudomonas aeruginosa [3]; contact time 10 min, 100 p.p.m.) | Bactericide activity (growth / no growth), serum interference test (Pseudomonas aeruginosa [3]; contact time 10 min, without serum) | Bactericide action (growth / no growth) (Pseudomonas aeruginosa [3]; contact time 30 min, 100 p.p.m.) | Bactericide activity (growth / no growth), serum interference test (Pseudomonas aeruginosa [3]; contact time 30 min, without serum) | Bactericide action (growth / no growth) (Pseudomonas aeruginosa [3]; contact time 60 min, 100 p.p.m.) | Bactericide activity (growth / no growth), serum interference test (Pseudomonas aeruginosa [3]; contact time 60 min, with human serum (10%)) | Bactericide activity (growth / no growth), serum interference test (Pseudomonas aeruginosa [3]; contact time 60 min, without serum) | Bactericide action (growth / no growth) (Pseudomonas aeruginosa [3]; contact time 120 min, 100 p.p.m.) | Bactericide activity (growth / no growth), serum interference test (Pseudomonas aeruginosa [3]; contact time 120 min, with human serum (10%)) | Bactericide activity (growth / no growth), serum interference test (Pseudomonas aeruginosa [3]; contact time 120 min, without serum) | Bactericide action (growth / no growth) (B. subtilis; contact time 3 min) | Bactericide action (growth / no growth) (B. subtilis; contact time 5 min) | Bactericide action (growth / no growth) (B. subtilis; contact time 10 min) | Bactericide action (growth / no growth) (B. subtilis; contact time 30 min) | Bactericide action (growth / no growth) (B. subtilis; contact time 60 min) | Bactericide action (growth / no growth) (B. subtilis; contact time 120 min) | Bactericide action (growth / no growth) (Salmonella sp. [4]; contact time 3 min) | Bactericide action (growth / no growth) (Salmonella sp. [4]; contact time 5 min) | Bactericide action (growth / no growth) (Salmonella sp. [4]; contact time 10 min) | Bactericide action (growth / no growth) (Salmonella sp. [4]; contact time 30 min) | Bactericide action (growth / no growth) (Salmonella sp. [4]; contact time 60 min) | Bactericide action (growth / no growth) (Salmonella sp. [4]; contact time 120 min) | Bactericide action (growth / no growth) (Staph. aureus [5]; contact time 3 min) | Bactericide action (growth / no growth) (Staph. aureus [5]; contact time 5 min) | Bactericide action (growth / no growth) (Staph. aureus [5]; contact time 10 min) | Bactericide action (growth / no growth) (Staph. aureus [5]; contact time 30 min) | Bactericide action (growth / no growth) (Staph. aureus [5]; contact time 60 min) | Bactericide action (growth / no growth) (Staph. aureus [5]; contact time 120 min)
125 µg/mL: MIC (Serratia marcescens [8])
31.2 µg/mL: MIC (Bacillaceae)
85 mg/kg: LD50 [11]
≤ 3 min: contact time for total bactericide activity (Indole-positive Proteus [1]) | contact time for total bactericide activity (Pseudomonas aeruginosa [3]; 100 p.p.m.)
> 1000 µg/mL: MIC (Indole-positive Proteus [6]; strain 2075) | MIC (Indole-positive Proteus [6]; strain 2083) | MIC (Indole-positive Proteus [6]; strain 2105) | MIC (Pseudomonas aeruginosa [7]; strain 2084) | MIC (Pseudomonas aeruginosa [7]; strain 2458) | MIC (Salmonella sp. [9]) | MIC (E.coli; strain 2094) | MIC (E.coli; strain 2096) | MIC (E.coli; strain 2117) | MIC (E.coli; strain 2456)
1000 µg/mL: MIC (Enterobacter) | MIC (Indole-positive Proteus [6]; strain 2674) | MIC (Pseudomonas aeruginosa [7]; strain 2488) | MIC (Pseudomonas aeruginosa [7]; strain 2508) | MIC (Pseudomonas aeruginosa [7]; strain 2509) | MIC (Pseudomonas aeruginosa [7]; strain 2670) | MIC (Staph. aureus [10])
+: Bactericide action (growth / no growth) (E. coli; contact time 3 min) | Bactericide action (growth / no growth) (E. coli; contact time 5 min) | Bactericide action (growth / no growth) (Serratia marcescens [2]; contact time 3 min) | Bactericide action (growth / no growth) (Serratia marcescens [2]; contact time 5 min) | Bactericide action (growth / no growth) (Serratia marcescens [2]; contact time 10 min) | Bactericide activity (growth / no growth), serum interference test (Pseudomonas aeruginosa [3]; contact time 3 min, with human serum (10%)) | Bactericide activity (growth / no growth), serum interference test (Pseudomonas aeruginosa [3]; contact time 5 min, with human serum (10%)) | Bactericide activity (growth / no growth), serum interference test (Pseudomonas aeruginosa [3]; contact time 10 min, with human serum (10%)) | Bactericide activity (growth / no growth), serum interference test (Pseudomonas aeruginosa [3]; contact time 30 min, with human serum (10%))
> 2000 µg/mL: MIC (Indole-positive Proteus [6]; strain 2410) | MIC (Indole-positive Proteus [6]; strain 2447)
2000 µg/mL: MIC (E.coli; strain 2568)
